From patent US20250034210A1, “DLL3 TARGETING PEPTIDES AND CONSTRUCTS THEREOF” (MARIANA ONCOLOGY INC., priority 2023, published 2025)
*1 amine or outer side, *2 acyl side, *3 side chain or, on linkers, in order; H or OH if unused. Where a SMILES comes first, the peptide text is derived from it. Bridges are numbered along the chain shown (N, C = ends). [ ]: non-standard residue; d: D form. The star is where a group is joined. DOTA = O=C(O)CN1CCN(CC(=O)O)CCN(CC(=O)*)CCN(CC(=O)O)CC1; Pro(4S-NH2) = N[C@@H]1CN[C@H](C(=O)O)C1; γGlu = O=C(O)[C@H](CCC(=O)[*:2])N[*:1]; Ahx = NCCCCCC(=O)O

Legend:
[1] = tested on: SHP-77 tumors; assay: Ex vivo biodistribution of radiolabeled peptides in nude mice bearing SHP-77 tumors; settings: [^177Lu]Lu labelling; nude mice bearing SHP-77 tumors (n = 3); 24 hours post-injection; intravenous
Procedure: [^177Lu]LuCl3 was received from venders in HCl solution. For every mCi of [^177Lu]LuCl3 added to the reaction vial (1.5 mL Eppendorf vial), ammonium acetate buffer (0.2 M, pH 4.9, 100 μL, containing 1% w/v ascorbic acid and 6% v/v ethanol) and peptide conjugate (1 nmol also referred to herein as “chelator-peptides”) was added. A peptide conjugate of the present disclosure is also referred to herein as a “chelator-peptide”. The pH of the solution was determined to be approximately 5 by using pH strips. The reaction vial was incubated at 80° C., 700 RPM for 17-20 minutes. A sample from the reaction was analyzed by RP-HPLC using an Agilent Infinity II 1260 HPLC to determine reaction completion and radiochemical purity of [^177Lu]Lu-chelator-peptide. HPLC conditions: Waters XBridge BEH C18 Column, 130 A, 3.5 um, 4.6 mm×250 mm; mobile phase: Solvent A=water (with 0.1% formic acid), solvent B=acetonitrile (with 0.1% formic acid). Gradients: 25-45% B in 10 minutes, 45-65% B in 12 minutes, 65-90% in 6 minutes at a flow rate of 0.5 mL/min. Required amounts of the product was formulated in 1% PBSA for cell studies.
Mice were intravenously injected (via the lateral tail vein) with a bolus dose of the radiolabeled peptides for ex vivo biodistribution studies when tumor volumes were in range of 200-400 mm^3 for xenograft mice and when age of the mice was 5-7 weeks for tumor naïve mice studies. To assess the amount of radionuclide injected into individual mice the syringe was assayed in a dose calibrator before and after injection for [^177Lu]Lu-peptide.
Mice were euthanized at pre-determined time points and selected tissues were resected and collected into pre-weighed tubes. The tubes were then reweighed post resection, the difference giving the weight of each tissue. Radioactivity in each tissue was measured using a gamma counter. Counts were decay corrected to the time of injection and percentage of injected activity per gram (% IA/g) was calculated for each tissue based on the injected activity into each individual mouse. Injected activity was converted to counts based on the sensitivity of the gamma counter. The counts in tissue were then converted to the percentage of injected activity and this was divided by the mass of tissue to give % IA/g.

[2] = target: T1, human DLL3 (Homo sapiens, UniProt Q9NYJ7); assay: Affinity determination by Surface Plasmon Resonance (SPR), biotinylated human DLL3 immobilized on streptavidin sensor chip; settings: 25° C., Biacore, 1:1 binding model
T1 construct: biotin (biotinylated)
T1 sequence (Q9NYJ7 27-618): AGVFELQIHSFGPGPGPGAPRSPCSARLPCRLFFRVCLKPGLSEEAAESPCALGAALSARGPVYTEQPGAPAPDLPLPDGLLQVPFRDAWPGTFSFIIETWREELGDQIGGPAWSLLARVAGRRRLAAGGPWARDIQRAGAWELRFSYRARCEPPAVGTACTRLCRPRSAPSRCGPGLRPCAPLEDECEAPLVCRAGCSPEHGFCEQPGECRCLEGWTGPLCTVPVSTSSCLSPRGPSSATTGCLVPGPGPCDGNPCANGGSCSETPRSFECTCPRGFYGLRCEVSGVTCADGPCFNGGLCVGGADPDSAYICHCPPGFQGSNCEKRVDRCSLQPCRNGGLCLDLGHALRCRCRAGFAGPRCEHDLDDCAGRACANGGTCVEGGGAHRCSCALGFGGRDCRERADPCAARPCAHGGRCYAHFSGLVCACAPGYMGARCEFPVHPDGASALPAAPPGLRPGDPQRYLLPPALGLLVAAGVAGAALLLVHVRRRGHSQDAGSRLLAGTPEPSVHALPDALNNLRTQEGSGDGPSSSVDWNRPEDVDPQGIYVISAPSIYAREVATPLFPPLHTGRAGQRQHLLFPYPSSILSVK
Procedure: Affinity Determination by Surface Plasmon Resonance (SPR). SPR studies were performed on the compounds disclosed herein using the following protocol.
The binding affinity and binding kinetic parameters at 25° C. were determined using Biacore S200 or biacore 8K instrument. Biotinylated target ligand human DLL3 was immobilized on a streptavidin sensor chip. A reference surface was set up for nonspecific binding and refractive index changes. For analysis of the kinetics of interactions, varying concentrations of samples were injected at a flow rate of 100 μL/min using running buffer containing 20 mM phosphate buffer with 2.7 mM KCl, 137 mM NaCl, 0.05% Surfactant P20 and 2% DMSO. Sensorgram curves were fitted with 1:1 binding model, and affinity and kinetic parameters were obtained using Biacore Insight evaluation 4.0. software.

SMILES | kidney uptake (% IA/g) [1] | tumor uptake (% IA/g) [1] | Kd [2]
CC[C@H](C)[C@H](NC(=O)[C@@H](NC(=O)[C@H](Cc1c[nH]c2ccccc12)NC(=O)CCCCCNC(=O)CN1CCN(CC(=O)O)CCN(CC(=O)O)CCN(CC(=O)O)CC1)[C@@H](C)O)C(=O)N[C@H]1CSSC[C@@H](C(=O)N[C@@H](Cc2c[nH]c3ccccc23)C(=O)N2CCC[C@@H]2C(N)=O)NC(=O)[C@H](CC(=O)O)NC(=O)[C@H](Cc2cnc[nH]2)NC(=O)[C@H](Cc2c[nH]c3ccccc23)NC(=O)[C@H](CC(N)=O)NC(=O)[C@H](CC(N)=O)NC1=O [compound 18, DOTA-Ahx-W-T-I-C(3)-N-N-W-H-D-C(3)-W-P-CONH2] ({DOTA-Ahx}-WTICNNWHDCW[dP]-NH2; disulfide 4-10) | D (% IA/g > 10 in kidney) | A (0 < % IA/g ≤ 5 in tumor) | 1 to 10 nM
CC[C@H](C)[C@H](NC(=O)[C@@H](NC(=O)[C@H](Cc1c[nH]c2ccccc12)NC(=O)CC[C@H](NC(=O)CC[C@H](NC(=O)CC[C@H](NC(=O)CN1CCN(CC(=O)O)CCN(CC(=O)O)CCN(CC(=O)O)CC1)C(=O)O)C(=O)O)C(=O)O)[C@@H](C)O)C(=O)N[C@H]1CSSC[C@@H](C(=O)N[C@@H](Cc2c[nH]c3ccccc23)C(=O)N2CCC[C@H]2C(N)=O)NC(=O)[C@H](CC(=O)O)NC(=O)[C@H](Cc2c[nH]cn2)NC(=O)[C@H](Cc2c[nH]c3ccccc23)NC(=O)[C@H](CC(N)=O)NC(=O)[C@H](CC(N)=O)NC1=O [compound 82, DOTA-(gE)3-W-T-I-C(3)-N-N-W-H-D-C(3)-W-P-CONH2] ({DOTA-γGlu-γGlu-γGlu}-WTICNNWHDCWP-NH2; disulfide 4-10) | D (% IA/g > 10 in kidney) | A (0 < % IA/g ≤ 5 in tumor) | –
CC[C@H](C)[C@H](NC(=O)[C@@H](NC(=O)[C@H](Cc1c[nH]c2ccccc12)NC(=O)CCCCCNC(=O)CN1CCN(CC(=O)O)CCN(CC(=O)O)CCN(CC(=O)O)CC1)[C@@H](C)O)C(=O)N[C@H]1CSSC[C@@H](C(=O)N[C@@H](Cc2c[nH]c3ccccc23)C(=O)N2C[C@@H](N)C[C@H]2C(N)=O)NC(=O)[C@H](CC(=O)O)NC(=O)[C@H](Cc2cnc[nH]2)NC(=O)[C@H](Cc2c[nH]c3ccccc23)NC(=O)[C@H](CC(N)=O)NC(=O)[C@H](CC(N)=O)NC1=O [compound 225, DOTA-Ahx-W-T-I-C(3)-N-N-W-H-D-C(3)-W-(cis4NH2-P)-CONH2] ({DOTA-Ahx}-WTICNNWHDCW[Pro(4S-NH2)]-NH2; disulfide 4-10) | – | – | 10 to 100 nM
